# Reference: publication PMC6175574, “Kinetic mechanism of coupled binding in sodium-aspartate symporter GltPh” (eLife, 2018)
# Several values for one entry are separate records, joined by “and”; a condition that tells them apart may be missing. Identical values can stand only once. Like-named read-outs stand apart in the source and are kept apart here.
# Columns and labels:
# P11W^IFS [1] = target: T1, P11W^IFS (Pyrococcus horikoshii, UniProt O59010, A364C/C321A/D37H/E368H/K125H/K132H/K223H/K264H/K40H/K55C/P11W); assay type: binding; conditions: for koff: fitted; for kon: reaction 1, T + Na = TNa
# Description: The kinetic models in Figure 4, Figure 4—figure supplement 4 and Figure 5—figure supplement 1 were implemented in KinTek program (KinTek, Inc) ([Johnson, 2009]) for global parameter fitting and in Copasi ([Hoops et al., 2006]) for simulations. […] Raw relaxation curves, including 21 dissociation and 58 binding reactions were fitted globally in KinTek (Figure 4—figure supplements 2 and 3).
# (§1) 68 individual relaxation curves were fitted globally, allowing only the rates of DL-TBOA dissociation to be adjusted (Figure 4—figure supplement 5).
# [2] = target: P11W^IFS (Hg^2+-crosslinked P11W/K55C/A364C GltPh, inward-facing state) (Pyrococcus horikoshii, UniProt O59010, A364C/C321A/D37H/E368H/K125H/K132H/K223H/K264H/K40H/K55C/P11W); assay type: binding; conditions: for slope of kr values versus Na^+ concentration: linear fit constrained through the origin, kr from plateaus of ligand binding rates
# Method: (§2) For emission scans, protein samples at 1 µM were prepared in 2 mL of 20 mM Hepes/Tris pH 7.4, 300 mM choline chloride and 1 mM DDM. […] Baseline was determined using buffer only and subtracted from the data. […] For real-time fluorescence measurements of ligand binding, protein samples at 1 µM were incubated in 2 mL fluorometer cell containing 20 mM Hepes/Tris pH 7.4, 300 mM choline chloride and 1 mM DDM with various NaCl concentrations at 25°C. Data were normalized by dividing fractional fluorescence change by the maximal change observed upon addition of saturating ligand concentrations at the end of each experiment. After signal equilibration, ligands were added with fast stirring. Excitation and emission wavelengths were 295 and 350 nm, respectively. Here and elsewhere, data were analyzed using SigmaPlot 12.0 (Systat Software, Inc) and GraphPad Prism 7 (GraphPad Software). All kinetic relaxation curves were fitted to single exponentials.
# The full Equation 4 requires fitting of four rate constants, kr, k-r, kon and koff ([Vogt et al., 2012]). […] The data for DL-TBOA binding were fitted to Equation 3.
# [3] = target: T2, FM-P11W^IFS (R276S/M395R within P11W^IFS background) (Pyrococcus horikoshii, UniProt O59010, A364C/C321A/D37H/E368H/K125H/K132H/K223H/K264H/K40H/K55C/M395R/P11W/R276S); assay type: binding
# T2 construct: made in house; host or cells: Escherichia coli DH10b
# Method: as §2, §1
# GltPh Na3 site = system: GltPh Na3 site; set-up: method as in Heinzelmann et al., 2011; Heinzelmann et al., 2013; conditions: estimated in computational studies, ref Heinzelmann et al., 2011, 2013; cited from earlier work
# wild type GltPh [4] = target: T3, wild type GltPh (Pyrococcus horikoshii, UniProt O59010); conditions: 100 mM NaCl; ref Ryan et al., 2009; cited from earlier work
# wild type GltPh [5] = target: T3, wild type GltPh; test: L-asp transport (uptake and exchange) in proteoliposomes; assay type: biochemical; set-up: made in house; host or cells: Escherichia coli (DH10b is stated for the mutants); conditions: 35°C, 200 mM NaCl external
# Method: GltPh protein samples were reconstituted into liposomes as previously described ([Boudker et al., 2007]; [Ryan et al., 2009]). In brief, 0.1% L-α-Phosphatidylethanolamine-N-lissamine rhodamine B sulfonyl (Avanti Polar Lipids) was added to with 3:1 (w/w) mixture of E.coli polar lipid extract and egg phosphatidylcholine and dried on rotary evaporator and under vacuum overnight. The mixture was hydrated using 20 mM Hepes/Tris, pH 7.4 and 200 mM KCl buffer at final lipid concentration of 5 mg/ml by 10 freeze/thaw cycles. The suspensions were extruded through 400 nm filter membranes (Whatman) 10 times to form unilamellar liposomes. The rhodamine fluorescence of the liposomes was measured to generate a concentration calibration curve; excitation and emission wavelengths were 560 and 583 nm, respectively. […] Final concentrations of proteoliposomes were determined by rhodamine fluorescence.
# For substrate exchange experiments, the internal proteoliposome buffer was replaced with buffer containing 20 mM Hepes/Tris, pH 7.4 and 200 mM NaCl and 100 µM L-asp. […] The washed filter membranes were transferred into scintillation vials, and retained radioactivity was measured using LS6500 scintillation counter (Beckman Coulter). Background uptake was measured in the reaction buffer containing 20 mM Hepes/Tris pH 7.4, 200 mM KCl, 500 nM ^3H-L-asp and 100 nM cold L-asp.
# P11W^IFS [6] = target: T1, P11W^IFS; test: Fluorescence-based titration using RH421; assay type: binding
# Method: After addition of appropriate NaCl concentrations and 200 nM RH421 (Sigma-Aldrich), the samples were incubated at 25°C until fluorescence signal plateaued. […] Excitation and emission wavelengths were 532 and 628 nm, respectively.
# T1 sequence (O59010 whole entry P11W/D37H/K40H/K55C/K125H/K132H/K223H/K264H/C321A/A364C/E368H): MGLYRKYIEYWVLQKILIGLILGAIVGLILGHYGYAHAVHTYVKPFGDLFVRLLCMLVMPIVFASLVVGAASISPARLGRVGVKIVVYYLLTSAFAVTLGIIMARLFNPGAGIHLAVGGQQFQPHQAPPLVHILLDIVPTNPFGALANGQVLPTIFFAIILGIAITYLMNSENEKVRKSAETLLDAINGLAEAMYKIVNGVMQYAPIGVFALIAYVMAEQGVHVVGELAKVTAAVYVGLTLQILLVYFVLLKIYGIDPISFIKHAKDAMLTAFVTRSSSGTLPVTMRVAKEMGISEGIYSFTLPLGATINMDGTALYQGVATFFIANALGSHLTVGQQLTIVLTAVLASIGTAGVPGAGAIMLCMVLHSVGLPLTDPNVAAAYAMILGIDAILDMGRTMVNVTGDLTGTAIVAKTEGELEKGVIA
# Sequence of P11W^IFS (Hg^2+-crosslinked P11W/K55C/A364C GltPh, inward-facing state) (O59010 whole entry P11W/D37H/K40H/K55C/K125H/K132H/K223H/K264H/C321A/A364C/E368H): as above
# T2 sequence (O59010 1-417 P11W/D37H/K40H/K55C/K125H/K132H/K223H/K264H/R276S/C321A/A364C/E368H/M395R): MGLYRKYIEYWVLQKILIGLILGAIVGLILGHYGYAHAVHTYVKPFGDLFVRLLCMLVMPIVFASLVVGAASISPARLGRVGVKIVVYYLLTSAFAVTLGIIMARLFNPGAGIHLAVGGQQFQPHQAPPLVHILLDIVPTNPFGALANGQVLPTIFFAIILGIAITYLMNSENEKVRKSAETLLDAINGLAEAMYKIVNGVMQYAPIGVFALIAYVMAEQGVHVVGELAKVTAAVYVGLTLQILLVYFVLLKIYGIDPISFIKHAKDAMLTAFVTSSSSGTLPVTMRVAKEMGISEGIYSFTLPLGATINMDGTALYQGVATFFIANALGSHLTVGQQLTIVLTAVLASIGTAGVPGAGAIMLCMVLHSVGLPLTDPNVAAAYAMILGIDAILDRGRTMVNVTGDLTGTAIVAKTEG
# T3 sequence (O59010 whole entry): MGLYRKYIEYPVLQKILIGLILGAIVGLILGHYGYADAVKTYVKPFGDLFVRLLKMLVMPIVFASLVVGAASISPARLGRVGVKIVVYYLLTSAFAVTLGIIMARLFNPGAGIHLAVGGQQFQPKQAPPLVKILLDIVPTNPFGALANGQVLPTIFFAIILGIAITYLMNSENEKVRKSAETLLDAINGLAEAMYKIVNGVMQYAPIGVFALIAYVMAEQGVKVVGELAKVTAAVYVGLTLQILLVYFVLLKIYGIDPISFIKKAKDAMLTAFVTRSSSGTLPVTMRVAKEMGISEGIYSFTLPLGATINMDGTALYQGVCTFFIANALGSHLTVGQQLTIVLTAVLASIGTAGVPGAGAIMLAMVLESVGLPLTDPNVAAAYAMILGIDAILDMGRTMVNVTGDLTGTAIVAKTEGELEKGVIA
smiles,measurement,setting,value
"N[C@H](C(=O)O)[C@H](OCc1ccccc1)C(=O)O (racemic) [DL-TBOA, DL-threo-β-benzyloxyaspartic acid, reference compound]",increase in the rate of unbinding relative to L-asp in kinetic model,P11W^IFS [1],about 20 fold
same,koff,"P11W^IFS [1]; reaction 3, TNa + A = TANa, P11W^IFS/DL-TBOA model",11.5 ± 5 s⁻¹
same,koff,"P11W^IFS [1]; reaction 4, TNa2 + A = TANa2, P11W^IFS/DL-TBOA model",1.72 ± 0.09 s⁻¹
same,kobs of DL-TBOA binding,"[2]; 8 mM DL-TBOA, 4 mM Na^+, representative experiment, single exponential fit",0.2106 s⁻¹
same,slope of kr values versus Na^+ concentration,[2],26 ± 1.7 M⁻¹ s⁻¹
"[Na+] [Na^+, sodium]",increase of the rate of binding of the first Na^+ ion relative to P11W^IFS,[3]; kinetic model adjustment,4 fold
same,kon,"[3]; reaction 1, T + Na = TNa, FM-P11W^IFS/L-asp model",144 M⁻¹ s⁻¹
same,koff,"[3]; reaction 1, T + Na = TNa, FM-P11W^IFS/L-asp model, optimized in global fitting (#)",39 ± 3 s⁻¹
same,Na^+ concentration at which fluxes through 'second Na^+ binds first' and 'L-asp binds first' branches are equal,"P11W^IFS [1]; kinetic model, forward and reverse directions",~ 3.6 mM and 3.6 mM
same,kon,"P11W^IFS [1]; P11W^IFS/DL-TBOA model, fixed (*)",36 M⁻¹ s⁻¹
same,kon,"P11W^IFS [1]; P11W^IFS/L-asp model, fixed during fitting (*)",36 M⁻¹ s⁻¹
same,remaining binding rates for Na^+ ions,P11W^IFS [1]; set at an arbitrary high value,10^7 M^−1 s^−1
same,affinity of binding of the first Na^+ ion,P11W^IFS [1]; suggested by experimental data,no more than −0.5 kcal/mol
same,Kd,"[2]; Hill coefficient n fixed to 1, L-asp dissociation experiments, read-out: KD,Na of rapidly equilibrating Na^+ ions (fit to Equation 2)",40 ± 20 µM
same,Kd,"[2]; Hill coefficient n fixed to 2, L-asp dissociation experiments, read-out: KD,Na of rapidly equilibrating Na^+ ions (fit to Equation 2)",130 ± 20 µM
same,Kd,"[2]; Hill coefficient n fixed to 3, L-asp dissociation experiments, read-out: KD,Na of rapidly equilibrating Na^+ ions (fit to Equation 2)",150 ± 13 µM
same,Kd,[2]; read-out: affinity of the two 'locking' Na^+ ions,~100 µM
same,intrinsic affinity of Na3 site,GltPh Na3 site,-16 kcal/mol
"N[C@@H](CC(=O)O)C(=O)O [L-asp, aspartate]",Km,wild type GltPh [4],~0.1 µM
same,rate of concentrative Na^+-driven uptake of radiolabeled L-asp compared with rate of L-asp exchange,wild type GltPh [5],significantly higher
same,kobs of L-asp binding,"[2]; 0.5 mM L-asp, 4 mM Na^+, representative experiment, single exponential fit",0.0712 s⁻¹
same,slope of kr values versus Na^+ concentration,[2],36 ± 0.9 M⁻¹ s⁻¹ and 36 M⁻¹ s⁻¹
same,slope of log-log plot of L-asp dissociation constants as a function of Na^+ concentration,P11W^IFS [6],2.5
